This is an account of results in paper PMC6928345, “Detection and functional characterization of sigma class GST in Phlebotomus argentipes and its role in stress tolerance and DDT resistance” (Scientific Reports, 2019).

Data set [1] concerns the target T1, rParg-GSTσ (sigma class GST of P. argentipes) (Phlebotomus argentipes, UniProt A0A5A4I953).
T1 construct: PCR primers designed on P. papatasi GSTσ
T1 sequence (A0A5A4I953 1-203): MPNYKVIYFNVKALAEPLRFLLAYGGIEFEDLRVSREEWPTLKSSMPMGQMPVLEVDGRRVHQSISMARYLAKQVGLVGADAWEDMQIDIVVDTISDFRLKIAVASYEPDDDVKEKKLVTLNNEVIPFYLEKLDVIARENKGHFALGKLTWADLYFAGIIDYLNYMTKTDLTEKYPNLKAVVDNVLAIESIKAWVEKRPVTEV
Description: spectrophotometric GSH conjugation assay, […] nm. It is filed as biochemical. The settings on record: 1 mM GSH, CDNB 0.07–8 mM, sodium phosphate pH 6.5, room temperature.

Data set [2] concerns the target T1, rParg-GSTσ (sigma class GST of P. argentipes). Description: inhibition of GST activity, residual activity. The class given is biochemical.
Substrate in data set [3]: CCCCCC(O)/C=C/C=O
Put plainly: purified protein. The class given is biochemical, Phlebotomus argentipes. The conditions noted are these: 1 mM GSH, 4-HNE 10–100 µM, sodium phosphate buffer.

Substrate in data set [4]: CC(C)(OO)c1ccccc1
Put plainly: purified protein. The class given is biochemical, Phlebotomus argentipes. The conditions noted are these: 1 mM GSH, 0.2 mM NADPH, 1 mM EDTA, cumene hydroperoxide 0.08–1.0 mM, sodium phosphate buffer.

Turning to `O=[N+]([O-])c1ccc(Cl)c([N+](=O)[O-])c1` [CDNB], the Km in data set [1] is 390 µM.
`C=C(CC)C(=O)c1ccc(OCC(=O)O)c(Cl)c1Cl` [Ethacrynic acid] showed an IC50 in data set [2] of 50 nM.

B1: rParg-GSTσ (sigma class GST of P. argentipes) (Phlebotomus argentipes) (protein)
chain: T1 sequence (A0A5A4I953 1-203)
notes: PCR primers designed on P. papatasi GSTσ
As to B1, the results for the Km in “purified protein [3]” and in “purified protein [4]” were 5.02 µM and 180 µM, respectively.

The Km is the concentration of substrate that gives half-maximal velocity. The IC50 is the midpoint of a concentration-inhibition curve. Low values mean greater potency in that assay, high ones weaker potency in that assay.
